In US20260256792A1, “TREATMENT OF CHRONIC SPONTANEOUS URTICARIA BY ADMINISTERING (R)-2-[3-[4-AMINO-3-(2-FLUORO-4-PHENOXY-PHENYL)PYRAZOLO[3,4-D]PYRIMIDIN-1-YL]PIPERIDINE-1-CARBONYL]-4-METHYL-4-[4-(OXETAN-3-YL)PIPERAZIN-1-YL]PENT-2-ENENITRILE” (priority 2023, published 2026):

Tested on: moderate-to-severe chronic spontaneous urticaria (CSU)
Assay: Phase 2 CSU study: urticaria activity score over 7 days (UAS7)
Type: in vivo, human
Parameters: key to UAS7 Median / UAS7 Change from baseline Median / UAS7 change from baseline, Q1 / UAS7 change from baseline, Q3 / UAS7 change from baseline, Max / UAS7 Change from baseline LS Mean (SE): UAS7 points; daily UAS score ranges 0–6 points/day, over 7 days
Source text: The study comprises a 12 week, randomized, double-blind, placebo-controlled, multi-center, dose-ranging efficacy and safety phase, followed by a 40 week open label extension (OLE) phase (see FIG. 1). The study consists of three phases and an optional OLE phase. […] Clinically, CSU is characterized by the spontaneous and recurrent appearance of pruritic hives. The proposed primary endpoints were the UAS7 at Week 12 in EU and EU reference countries and the ISS7 in the US. Regardless of where a participant was from, all assessments were the same. The UAS7 score is a composite score containing both the HSS7 and the ISS7. This allowed a global assessment of the two key components of urticaria: hives and itch. […] The UAS is a validated PRO measure. […] The daily UAS scores range from 0 to 6 point/day. […] Patients were to complete the UAS using the e-diary. […] The following secondary endpoints were to be analyzed using the same approach as for the primary endpoint: • Change from baseline in UAS7 at Week 4 • Change from baseline in UAS7 at Week 12 (for US and US reference countries) • Change from baseline in ISS7 at Week 12 (except US and US reference countries) • Change from baseline in HSS7 at Week 12 The following responder secondary endpoints were to be analyzed using the Cochran-Mantel-Haenszel test adjusted by region: • Proportion of participants with UAS7<6 at Week 12 • Proportion of participants with UAS7=0 at Week 12 Participants who received selected prohibited medications and/or rescue medications were to be considered as non-responders for time points after the medication usage. For other participants, all available data including those collected during the off-treatment period were to be used to determine the responder/non-responder status. Missing data were to be considered as non-responders.

[1] = Omalizumab-Naïve Population, 400 mg BID, Week 1
[2] = Omalizumab-Naïve Population, 400 mg BID, Week 2
[3] = Omalizumab-Naïve Population, 400 mg BID, Week 3
[4] = Omalizumab-Naïve Population, 400 mg BID, Week 4
[5] = Omalizumab-Naïve Population, 400 mg BID, Week 12
[6] = Omalizumab-Naïve Population, 400 mg QPM, Week 1
[7] = Omalizumab-Naïve Population, 400 mg QPM, Week 2
[8] = Omalizumab-Naïve Population, 400 mg QPM, Week 3

For `CC(C)(C=C(C#N)C(=O)N1CCC[C@@H](n2nc(-c3ccc(Oc4ccccc4)cc3F)c3c(N)ncnc32)C1)N1CCN(C2COC2)CC1` [rilzabrutinib, (R)-2-[3-[4-amino-3-(2-fluoro-4-phenoxy-phenyl)pyrazolo[3,4-d]pyrimidin-1-yl]piperidine-1-carbonyl]-4-methyl-4-[4-(oxetan-3-yl)piperazin-1-yl]pent-2-enenitrile], the “UAS7 Post-baseline Mean (SD)” value (Omalizumab-Naïve Population with Outlier Removed, 400 mg QPM, Week 2) was 23.44 (8.97), the “UAS7 Post-baseline Mean (SD)” value (Omalizumab-Naïve Population with Outlier Removed, 400 mg QPM, Week 3) was 22.01 (9.00) and the “UAS7 Post-baseline Mean (SD)” value (Omalizumab-Naïve Population with Outlier Removed, 400 mg QPM, Week 4) was 21.92 (8.82). The “UAS7 Post-baseline Mean (SD)” value (Omalizumab-Naïve Population with Outlier Removed, 400 mg QPM, Week 5) was 20.63 (9.18), the “UAS7 Post-baseline Mean (SD)” value (Omalizumab-Naïve Population with Outlier Removed, 400 mg QPM, Week 6) was 20.21 (10.42) and the “UAS7 Post-baseline Mean (SD)” value (Omalizumab-Naïve Population with Outlier Removed, 400 mg QPM, Week 7) was 21.11 (10.03). For the same molecule, the “UAS7 Post-baseline Mean (SD)” value (Omalizumab-Naïve Population with Outlier Removed, 400 mg QPM, Week 9) was 20.25 (10.25), the “UAS7 Post-baseline Mean (SD)” value (Omalizumab-Naïve Population with Outlier Removed, 400 mg QPM, Week 10) was 20.27 (10.69) and the “UAS7 Post-baseline Mean (SD)” value (Omalizumab-Naïve Population with Outlier Removed, 400 mg QPM, Week 11) was 21.17 (11.16). The “UAS7 Post-baseline Mean (SD)” value (Omalizumab-Naïve Population with Outlier Removed, 400 mg TID, Week 1) was 18.29 (9.93), the “UAS7 Post-baseline Mean (SD)” value (Omalizumab-Naïve Population with Outlier Removed, 400 mg TID, Week 2) was 16.03 (10.59) and the “UAS7 Post-baseline Mean (SD)” value (Omalizumab-Naïve Population with Outlier Removed, 400 mg TID, Week 3) was 15.20 (9.97). For the same molecule, the “UAS7 Post-baseline Mean (SD)” value (Omalizumab-Naïve Population with Outlier Removed, 400 mg TID, Week 4) was 14.65 (9.61), the “UAS7 Post-baseline Mean (SD)” value (Omalizumab-Naïve Population with Outlier Removed, 400 mg TID, Week 5) was 13.41 (10.60) and the “UAS7 Post-baseline Mean (SD)” value (Omalizumab-Naïve Population with Outlier Removed, 400 mg TID, Week 6) was 14.10 (11.23). For the same molecule, the “UAS7 Post-baseline Mean (SD)” value (Omalizumab-Naïve Population with Outlier Removed, 400 mg TID, Week 7) was 13.54 (9.34), the “UAS7 Post-baseline Mean (SD)” value (Omalizumab-Naïve Population with Outlier Removed, 400 mg TID, Week 8) was 13.36 (9.81) and the “UAS7 Post-baseline Mean (SD)” value (Omalizumab-Naïve Population with Outlier Removed, 400 mg TID, Week 9) was 12.57 (9.72). For the same molecule, the “UAS7 Post-baseline Mean (SD)” value (Omalizumab-Naïve Population with Outlier Removed, 400 mg TID, Week 10) was 12.61 (9.89), the “UAS7 Post-baseline Mean (SD)” value (Omalizumab-Naïve Population with Outlier Removed, 400 mg TID, Week 12) was 11.00 (9.90) and the “UAS7 % Change difference for rilzabrutinib vs. placebo LS Mean (95% CI)” value (“UAS7 % Change difference … (95% CI)” below) [1] was −25.01%. For the same molecule, the “UAS7 % Change from baseline LS Mean (SE)” value [1] was −34.48 (5.64) %, the “UAS7 Change difference for rilzabrutinib vs. placebo LS Mean (95% CI)” value (from here on “UAS7 Change difference … (95% CI)”) [1] was −6.24 and the “UAS7 Change from baseline LS Mean (SE)” value [1] was −9.79 (1.58). The “UAS7 Post-baseline Mean (SD)” value [1] was 19.77 (11.32), the “UAS7 % Change difference … (95% CI)” value [2] was −18.28% and the “UAS7 % Change from baseline LS Mean (SE)” value [2] was −36.05 (5.50) %. For the same molecule, the “UAS7 Change difference … (95% CI)” value [2] was −4.55, the “UAS7 Change from baseline LS Mean (SE)” value [2] was −10.44 (1.57) and the “UAS7 Post-baseline Mean (SD)” value [2] was 19.59 (10.86). For the same molecule, the “UAS7 % Change difference … (95% CI)” value [3] was −20.16%, the “UAS7 % Change from baseline LS Mean (SE)” value [3] was −40.11 (5.66) % and the “UAS7 Change difference … (95% CI)” value [3] was −5.04. For the same molecule, the “UAS7 Change from baseline LS Mean (SE)” value [3] was −11.96 (1.67), the “UAS7 Post-baseline Mean (SD)” value [3] was 17.71 (11.91) and the “UAS7 % Change difference … (95% CI)” value [4] was −23.20%. The “UAS7 % Change from baseline LS Mean (SE)” value [4] was −43.62 (5.88) %, the “UAS7 Change difference … (95% CI)” value [4] was −5.82 and the “UAS7 Change from baseline LS Mean (SE)” value [4] was −12.89 (1.73). For the same molecule, the “UAS7 Post-baseline Mean (SD)” value [4] was 15.92 (11.71), the “UAS7 Post-baseline Mean (SD)” value (Omalizumab-Naïve Population, 400 mg BID, Week 5) was 17.22 (13.36) and the “UAS7 Post-baseline Mean (SD)” value (Omalizumab-Naïve Population, 400 mg BID, Week 6) was 17.02 (12.76). The “UAS7 Post-baseline Mean (SD)” value (Omalizumab-Naïve Population, 400 mg BID, Week 7) was 15.55 (11.97), the “UAS7 Post-baseline Mean (SD)” value (Omalizumab-Naïve Population, 400 mg BID, Week 8) was 13.98 (13.06) and the “UAS7 Post-baseline Mean (SD)” value (Omalizumab-Naïve Population, 400 mg BID, Week 9) was 14.64 (14.43). For the same molecule, the “UAS7 Post-baseline Mean (SD)” value (Omalizumab-Naïve Population, 400 mg BID, Week 10) was 15.22 (14.36), the “UAS7 Post-baseline Mean (SD)” value (Omalizumab-Naïve Population, 400 mg BID, Week 11) was 15.06 (13.80) and the “UAS7 % Change difference … (95% CI)” value [5] was −17.85%. For the same molecule, the “UAS7 % Change from baseline LS Mean (SE)” value [5] was −48.13 (6.91) %, the “UAS7 Change difference … (95% CI)” value [5] was −4.09 and the “UAS7 Change from baseline LS Mean (SE)” value [5] was −14.24 (2.06). For the same molecule, the “UAS7 Post-baseline Mean (SD)” value [5] was 15.61 (13.91), the “UAS7 % Change difference … (95% CI)” value [6] was −12.19% and the “UAS7 % Change from baseline LS Mean (SE)” value [6] was −21.67 (5.45) %. For the same molecule, the “UAS7 Change difference … (95% CI)” value [6] was −3.51, the “UAS7 Change from baseline LS Mean (SE)” value [6] was −7.06 (1.52) and the “UAS7 Post-baseline Mean (SD)” value [6] was 23.81 (8.78). The “UAS7 % Change difference … (95% CI)” value [7] was −6.60%, the “UAS7 % Change from baseline LS Mean (SE)” value [7] was −24.37 (5.29) % and the “UAS7 Change difference … (95% CI)” value [7] was −1.81. The “UAS7 Change from baseline LS Mean (SE)” value [7] was −7.71 (1.52), the “UAS7 Post-baseline Mean (SD)” value [7] was 23.44 (8.97) and the “UAS7 % Change difference … (95% CI)” value [8] was −8.98%. The “UAS7 % Change from baseline LS Mean (SE)” value [8] was −28.93 (5.48) %, the “UAS7 Change difference … (95% CI)” value [8] was −2.17 and the “UAS7 Change from baseline LS Mean (SE)” value [8] was −9.10 (1.61).
